Test results: PMC11096368, “Transcriptomic signature, bioactivity and safety of a non-hepatotoxic analgesic generating AM404 in the midbrain PAG region” (Scientific Reports, 2024)
Entries after “also recorded” stand apart in the source; their conditions may differ.

Assays:
[1] = test system: male Sprague–Dawley rats; test: Neuropharmacological profile, modified Irwin/Functional Observational Battery (GLP); type: in vivo; conditions: for Body temperature versus vehicle: 1 h post-dose
Experimental: Any potential neuropharmacological effects of orally administered SRP-001 in rats were assessed in three groups of eight male Sprague–Dawley rats. Each was orally administered SRP-001 at a single dose of 220, 440, or 660 mg/kg. Vehicle (10% labrasol: 10% DMSO: 80% PEG400) was administered to an additional group of eight rats. The dose volume was 10 mL/kg. […] All observations were made at ± 5 min for the observations through 1 h post-dose and ± 15 min for the later observations. Body temperature was measured 1 h following dose administration.

[2] = test system: Rat liver and stomach cells; test: In vivo mammalian alkaline comet assay; design: species or system rats
Experimental: Male Sprague–Dawley rats were orally administered SRP-001 at 500, 1000, or 2000 mg/kg/dose for two consecutive days at a dose volume of 10 mL/kg/dose (Bioreliance, Rockville, MD USA). The vehicle control was 10% Labrasol, 10% DMSO, and 80% PEG400. The positive control for the Comet assay, ethyl methanesulfonate (EMS), was orally administered at 200 mg/kg/dose for two consecutive days at a dose volume of 10 mL/kg/dose. […] Animals were euthanized 3–4 h after the last dose administration. The liver and glandular stomach were collected and processed for comet evaluation.
The group mean % tail DNA for the vehicle control was within the 95% control limit of the study historical data range, with one animal (#160) exceeding the individual animal 95% control limit but within the minimum/maximum range. Additionally, three animals (#173, 174, and 175) in the mid-dose (1000 mg/kg/dose) group likewise exceeded the individual animal 95% control limit but were within the minimum/maximum range.
The group mean % tail DNA for the vehicle control was within the 95% control limit of the study historical data range, with one animal (#158) exceeding both the individual animal 95% control limit and minimum/maximum ranges. One animal (#171) in the mid-dose (1000 mg/kg/dose) group and one animal (#180) in the high-dose (2000 mg/kg/dose) group exceeded just the 95% control limit range but were within the minimum/maximum range. One animal (#170) in the mid-dose (1000 mg/kg/dose) group and one animal (#179) in the high-dose (2000 mg/kg/dose) group exceeded both the individual animal 95% control limit and minimum/maximum ranges.

[3] = 28-day oral toxicity study with 14-day recovery (GLP); type: in vivo, rats; conditions: both sexes, Sprague-Dawley, rat, in vivo, oral; once daily for 28 days; read-out: No-adverse effect level (NOAEL)
Description: (§1) We next set out to determine the toxicity and toxicokinetics of SRP-001 when administered via oral gavage once daily to Sprague–Dawley Rats for 28 d (Calvert Labs/Altasciences, Scott Township, PA USA). The study also assessed the reversibility of any toxicity observed with a 14-d recovery period. One hundred thirty-six experimentally naïve Sprague–Dawley rats (68 males and 68 females), 8 weeks old and weighing 167–295 g for males and females at the outset of the study, were assigned to toxicology treatment groups (Groups 1–4) or toxicokinetic groups (Groups 5–7). For toxicology groups, 10 animals/sex/dose were administered 0, 300, 900, or 1500 mg/kg/d SRP-001. An additional 5 animals/sex/dose in Groups 1 and 4 were targeted for a 14-d recovery period and euthanized on day 43. For toxicokinetic groups, 6 animals/sex/dose were administered 300, 900, or 1500 mg/kg/d SRP-001. Mortality/morbidity was performed twice daily and once prior to scheduled sacrifice. Animals in Groups 1–4 were observed prior to each dose administration and 1–3 h post-dose. Animals in Groups 1–4 were also observed once daily on non-dosing days and once prior to scheduled sacrifice. Body weights were recorded prior to randomization/selection, prior to dose administration on day 1, and weekly thereafter. Food consumption was determined weekly for animals in Groups 1–4. Ophthalmology examinations were performed before treatment initiation and during the last week of dosing for animals in Groups 1–4. The functional observational battery was assessed for 5 animals/sex/group in Groups 1–4 once prior to dosing and at 1–2 h following dose administration on day 1. Blood for evaluation of hematology, coagulation, and clinical chemistry and urine for urinalysis was collected from animals in Groups 1–4 on day 29 or day 43. Blood for toxicokinetic evaluation was collected from animals in Groups 5–7 at selected timepoints on days 1 and 28. All surviving animals in Groups 1–4 were sacrificed on day 29 or day 43. Selected tissues were harvested at necropsy, selected organs weighed, and selected tissues evaluated microscopically.
(§2) Following dosing, the reversibility of any toxicity observed was assessed with a 14-d recovery period of animals receiving 0 or 1500 mg/kg of SRP-001. SRP-001-related clinical signs included red staining around the forepaw, forelimbs, mouth, muzzle, and nose and brown-staining in the anogenital area. […] The majority of clinical signs were observed during the first 3 weeks of dosing, and by day 28, the majority of the animals appeared normal. […] These differences remained within or close to the historically normal ranges. Statistically significant differences in total protein, globulin, and mean corpuscular hemoglobin remained present in males after the recovery period, although at a smaller magnitude. SRP-001-related microscopic findings were limited to the liver and included minimal to mild centrilobular hepatocellular hypertrophy in both sexes at ≥ 300 mg/kg/d. This finding correlated with statistically significant increases in liver weights in both sexes.
(§3) Exposure to SRP-001 following oral gavage dosing at 300, 900, and 1500 mg/kg SRP-001 was dose-dependent, increasing with escalating doses following a single dose. […] Based on the parameters observed, the no-adverse effect level (NOAEL) of SRP-001, when administered once daily for 28 d to Sprague–Dawley rats, was 1500 mg/kg.

[4] = test system: Sprague Dawley rats; test: as above; type: in vivo
Description: as §1, §2, §3

CCN(CC)C(=O)c1ccccc1S(=O)(=O)NCC(=O)Nc1ccc(O)cc1 [SRP-001, N,N-diethyl-2-[[2-(4-hydroxyanilino)-2-oxo-ethyl]sulfamoyl]benzamide]
Body temperature versus vehicle ([1]; 220 or 440 mg/kg): not affected | Body temperature versus vehicle ([1]; high-dose group (660 mg/kg)): significantly (p ≤ 0.05) lower; also recorded: lower body temperature; also recorded: Decreased body temp | Neuropharmacological or clinical signs ([1]; oral, 220, 440, 660 mg/kg, through 24 h post-dose): No apparent neuropharmacological or clinical signs; also recorded: No apparent neuropharmacological effects | % tail DNA, glandular stomach ([2]; 500, 1000, 2000 mg/kg/dose): No statistically significant increases | % tail DNA, liver ([2]; 500, 1000, 2000 mg/kg/dose): No statistically significant increases | Comet assay result (DNA damage in liver and stomach) ([2]; up to 2000 mg/kg/dose, two consecutive days, oral): negative; also recorded: negative (non-DNA damaging) | NOAEL at 28 d [3]: 1500 mg/kg | Exposure versus dose ([4]; 300, 900, 1500 mg/kg, single dose and 28 days): dose-dependent | Body weight, food consumption, functional observation battery, ophthalmology, coagulation, urinalysis ([4]; 300, 900, 1500 mg/kg/d): no SRP-001-related effects | Doses without treatment-related adverse effects ([4]; 28 days of daily oral doses, rats): up to 1500 mg/kg/day | Doses with minimal to mild centrilobular hepatocellular hypertrophy (non-adverse) ([4]; both sexes, 28 d): ≥ 300 mg/kg/day
